Laboratory results from patent US10696996B2, “Biosynthesis of everninomicin analogs in Micromonospora carbonacea var aurantiaca” (VANDERBILT UNIVERSITY, priority 2015, dated 2020).
Converted amounts (≈) assume the structure as drawn. Like-named read-outs stand apart in the source and are kept apart here.

Assays:
[1] = tested on: Staphyloccocus aureus subsp. aureus Rosenbach (ATCC 6538P); assay: broth microdilution assay (NCCLS), antibacterial activity; format: cell-based, Staphylococcus aureus; details: for MIC: S. aureus subsp. aureus Rosenbach, broth microdilution
Procedure: The antibacterial activity of purified everninomicins and conjugates was determined by the broth microdilution assay according to NCCLS guidelines using Staphyloccocus aureus subsp. aureus Rosenbach (ATCC 6538P) as the test organism.

HygX = biological target: T1, HygX (Streptomyces hygroscopicus, UniProt Q2MFS1); assay: tryptophan fluorescence quenching assay, hygromycin B binding to HygX; set-up: species or system S. hygroscopicus; details: 20° C.
T1 sequence (Q2MFS1 1-258): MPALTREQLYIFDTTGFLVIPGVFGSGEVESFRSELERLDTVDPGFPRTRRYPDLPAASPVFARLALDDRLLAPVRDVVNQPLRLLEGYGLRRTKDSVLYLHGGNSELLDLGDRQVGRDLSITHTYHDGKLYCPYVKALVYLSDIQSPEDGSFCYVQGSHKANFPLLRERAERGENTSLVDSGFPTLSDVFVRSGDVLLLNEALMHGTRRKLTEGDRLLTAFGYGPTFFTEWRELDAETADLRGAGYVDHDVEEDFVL
Procedure: The Kd of hygromycin B binding to HygX was determined by monitoring the quenching of intrinsic fluorescence from the single tryptophan residue of HygX upon hygromycin B binding. Using a Cary Eclipse Varian fluorescence spectrometer, sample fluorescence was measured at 20° C. with both emission and excitation slits set at 10 nm and detector voltage set to 800 V. The […] wavelength was set to 280 nm, and spectra collected were from 300 to 400 nm, with 350 nm used for calculating binding affinity. Each sample contained 990 μL of 0.5 μM HygX in 25 mM Tris (pH 7.4), 75 mM NaCl, 0.05 mM AKG, and 0.05 mM NiCl2, which was then mixed with 10 μL of hygromycin B (diluted in the above buffer) of varying concentrations. Spectra were measured in triplicate, and the experiment repeated three times. Because hygromycin B at higher concentrations has background fluorescence between 300 and 400 nm, the experiment was repeated using only buffer and subtracted from the measurement taken with HygX present. Change in fluorescence resulting from changing hygromycin B concentration was plotted against hygromycin B concentration and fit to a single binding-site model using Kaleidagraph Version 4.0.

M. carbonacea = assay: nalidixic acid concentration test for conjugation, survival of M. carbonacea; format: cell-based, Micromonospora carbonacea var aurantiaca
E. coli = assay: nalidixic acid concentration test for conjugation, growth of donor E. coli; format: cell-based, Escherichia coli
Procedure: M. carbonacea was grown on TSB agar (Oxoid™ Tryptone Soy Broth, 2% agarose) for 7 days at 30° C. Conjugal acceptor mycelia were prepared by inoculating a loop of mycelia into 10 mL of TSB medium in a 50 mL Falcon tube and incubating with shaking at 30° C. for 5 days. The culture was then centrifuged at 3000×g for 10 minutes and the pellet resuspended in 2 mL fresh TSB. 150 μL aliquots were transferred into sterile 1.5 mL Eppendorf tubes and homogenized using a sterile plastic cell homogenizer. Donor E. coli ET12567/pUZ8002 cells containing the gene replacement were prepared by inoculating 1% of a freshly prepared overnight LB culture into 10 mL LB medium in a 50 mL Falcon tube containing apramycin and kanamycin and grown to an OD600 of 0.4 at 37° C. with shaking. The culture was centrifuged at 3000×g for 10 minutes, and the pellet was washed three times with 10 mL fresh LB. After the final wash, the pellet was resuspended in 150 μL LB. 50 μL of donor E. coli was added to 150 μL of recipient M. carbonacea. The bacterial mixture was plated on AS1 agar (0.1% yeast extract, 0.5% soluble starch, 0.02% L-alanine, 0.02% L-arginine, 0.05% L-asparagine, 0.25% NaCl, 1% Na2SO4, 2% agarose at pH 7.5, supplemented with 10 mM MgCl2). The plates were then incubated at 37° C. for 1-2 hours until thoroughly dried. […]

[2] = Staphylococcus aureus, ATCC6538P, read-out: MIC

CCC1OC(=O)C[C@@H](O)[C@H](C)[C@@H](OC2OC(C)CC(N(C)C)C2O)[C@@H](CC=[N+]([O-])[C@@]2(C)C[C@@H](O[C@@H]3C[C@H](O[C@@H]([C@H](O)CC(=O)O)[C@@H](C)O)O[C@H](C)[C@H]3OC(=O)c3c(C)c(Cl)c(O)c(Cl)c3OC)O[C@@H](C)[C@H]2OC)C[C@@H](C)C(=O)/C=C/[C@]2(C)O[C@H]2[C@@H]1C (stereo partly shown)
MIC [1, 2]: 1 µg/mL (≈ 0.791 µM)

COC[C@H]1O[C@@H](O[C@@H]2OC[C@@H]3O[C@@]4(OC[C@@H](OC(=O)c5c(C)cc(O)cc5O)[C@@H]5OCO[C@H]54)O[C@H]3[C@H]2O)[C@@H](OC)[C@@H](O)[C@@H]1O[C@@H]1O[C@H](C)[C@H](OC)[C@H](O[C@@H]2O[C@H](C)[C@H]3O[C@]4(C[C@@H](O)[C@H](O[C@H]5C[C@@H](O[C@H]6C[C@](C)([N+](=O)[O-])[C@@H](OC)[C@H](C)O6)[C@H](OC(=O)c6c(C)c(Cl)c(O)c(Cl)c6OC)[C@@H](C)O5)[C@@H](C)O4)O[C@]3(C)[C@@H]2O)[C@H]1O [everninomicin A]
MIC [1, 2]: 1 µg/mL (≈ 0.613 µM)

CNC1CC(N)C(O)C(OC2OC(CO)C(O)C3OC4(OC(C(N)CO)C(O)C(O)C4O)OC23)C1O (stereo not shown) [hygromycin B]
Kd (HygX): 3.4 ± 0.5 µM

CCn1cc(C(=O)O)c(=O)c2ccc(C)nc21 [nalidixic acid]
growth of M. carbonacea (M. carbonacea; nalidixic acid 12.5 μg/mL): substantially more
growth of M. carbonacea (M. carbonacea; nalidixic acid 25 μg/mL): stunted the growth
viability of M. carbonacea (M. carbonacea; nalidixic acid 50 μg/mL): not viable
growth of E. coli (E. coli; nalidixic acid 12.5 μg/mL): stunted
growth of E. coli (E. coli; nalidixic acid 25 μg/mL): stunted the growth

everninomicin H
activity against S. aureus ([1]; S. aureus): moderately active
MIC [1]: 16 µg/mL
